According to patent publication US20230295152A1 (SENDA BIOSCIENCES, INC., priority 2019, published 2023):

Columns and labels:
Assay type in all cases: in vitro ADME
[1] = Plasma Protein Binding with Ultracentrifugation Method, human; settings: for fraction unbound at 30 min, 1 μM: human plasma, read-out: Human plasma protein binding (% bound); for fraction unbound at 5.5 h, 1 μM: human, plasma, read-out: Plasma Protein Binding PPB (h) % (converted)
Method: (§1) The frozen plasma (stored at −80° C.) was thawed in a 37° C. water bath, followed by centrifugation at 3,220 g for 10 minutes to remove clots. The supernatant was removed into a new tube as the spun plasma. The spun plasma was pre-warmed in a 37° C. water bath for 10 minutes. The stock solutions of test compounds were diluted to 200 μM in DMSO, and then spiked into the plasma. Duplicate samples were prepared. The final concentration of compound was 1.0 μM. The final concentration of organic solvent was 0.5%. Warfarin was used as positive control in the assay. 1.0 mL of the spiked plasma was transferred to a new balance ultracentrifuge tube. Samples were incubated at 37° C., 5% CO2 for 30 minutes. After incubation, the balance ultracentrifuge tubes were centrifuged at 600,000 g for 5.5 hours at 37° C. After centrifugation, 50 μL solution was removed from the center of the ultracentrifuge tubes as the post-ultracentrifugation samples, followed by the addition of 50 μL blank plasma and 400 μL quench solution (acetonitrile containing internal standards (IS, 100 nM Alprazolam, 500 nM Labetalol and 2 μM Ketoprofen)) to precipitate protein and release compounds. Samples were vortexed for 2 minutes, followed by centrifugation at 20,000 g for 15 minutes at room temperature. The supernatant was diluted with ultrapure water and then used for LC-MS/MS analysis. Stability samples was prepared by transferring 50 μL of the spiked plasma to 0.6 mL tubes and incubated at 37° C., 5% CO2 for 0.5 and 6 hours. After incubation, 50 μL PBS (100 mM, pH7.4) and 400 μL quench solution were added to the stability samples. And then stability samples were treated the same way as the post-ultracentrifugation samples. The supernatant was diluted with ultrapure water and then used for LC-MS/MS analysis. 0.5 hour time point samples were also used as no-spun controls. Time 0 samples were prepared by transferring 50 μL spiked plasma to 0.6 mL tubes containing 50 μL PBS, followed by the addition of 400 μL quench solution to precipitate protein and release compound. And then these samples were treated the same way as the post-ultracentrifugation samples. The supernatant was diluted with ultrapure water and then used for LC-MS/MS analysis.
(§2) Data Analysis: All calculations were carried out using Microsoft Excel. The concentrations of test compound in plasma samples and post-ultracentrifugation plasma was determined from peak areas. The percentages of test compound bound was calculated as follows: […]
(§3) “+++” indicates a % bound value less than 50, “++” indicates a % bound value between 50 and 75, and “+” indicates a % bound value above 75.

CYP2D6 = target: T1, CYP2D6 (Homo sapiens, UniProt P10635); test: CYP Inhibition Assay in human liver microsomes, CYP2D6; settings: pH 7.4
T1 construct: from tissue; host or cells: human liver microsomes (HLM)
T1 sequence (P10635 whole entry): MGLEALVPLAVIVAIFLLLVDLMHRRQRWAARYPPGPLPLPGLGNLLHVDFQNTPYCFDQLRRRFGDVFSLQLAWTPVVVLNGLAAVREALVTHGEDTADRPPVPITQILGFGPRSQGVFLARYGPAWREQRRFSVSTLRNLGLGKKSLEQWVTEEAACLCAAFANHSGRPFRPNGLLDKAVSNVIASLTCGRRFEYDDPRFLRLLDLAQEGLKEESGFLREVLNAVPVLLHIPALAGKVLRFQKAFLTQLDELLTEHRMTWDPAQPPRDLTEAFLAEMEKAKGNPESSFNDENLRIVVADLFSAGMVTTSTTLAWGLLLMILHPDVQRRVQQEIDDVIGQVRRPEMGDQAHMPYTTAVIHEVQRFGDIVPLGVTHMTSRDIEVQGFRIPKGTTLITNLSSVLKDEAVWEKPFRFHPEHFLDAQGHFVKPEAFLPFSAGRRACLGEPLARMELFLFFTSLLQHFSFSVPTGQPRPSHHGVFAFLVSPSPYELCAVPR
Method: Stock solutions of test compounds were prepared in DMSO at the concentrations of 10 mM. Stock solution was diluted to 2 mM with acetonitrile. The final concentration of test compounds was 10 μM. For the stock solution preparation, if the positive control could not be well dissolved in the mixture of DMSO and acetonitrile (1:4) at the highest concentration, another mixture of acetonitrile and DMSO, the mixture of acetonitrile and H2O or DMSO will be used to dissolve the compound.
The substrate solutions are stored in a −20° C. freezer and warmed to room temperature prior to use.
Preparation of Phosphate Buffer (100 mmol/L, pH 7.4): To prepare the Solution A, 7.098 g of disodium hydrogen phosphate were weighed out and added into 500 mL of pure water, then sonicated to dissolve the content. To prepare the Solution B, 3.400 g of potassium dihydrogen phosphate were weighed out and added into 250 mL of pure water, then sonicated to dissolve the content. Solution A was placed on a stirrer and slowly Solution B was added into Solution A until the pH reached 7.4. Preparation of 10 mmol/L NADPH Solution: NADPH was dissolved at 8.334 mg/mL in phosphate buffer; the solution was freshly prepared prior to use.
The master solution was prepared according to Table 45. The incubation was carried out in 96 deep well plates. The following volumes were dispensed into each well of the incubation plate: 179 μL of the substrate and HLM mixture in phosphate buffer, 1 μL of the compound working solution, or vehicle (mixture of DMSO and acetonitrile (1:4)). The incubation plate was placed into the water bath and pre-warmed at 37° C. for 15 minutes before the reactions was started by the addition of 20 μL of 10 mmol/L NADPH solution in phosphate buffer. After the addition of NADPH, the incubation plate was incubated at 37° C. for corresponding time. The assay was performed in duplicate.
The reaction was quenched by the addition of 1.5 volume (300 μL) of cold acetonitrile containing 3% formic acid and internal standards (200 nM Labetalol, 200 nM Alprazolam and 200 nM tolbutamide). The plate was centrifuged at 3,220 g for 40 minutes. 100 μL of the supernatant was transferred to a new plate. The supernatant was diluted with 100 μL pure water. The samples were mixed well and analyzed using UPLC/MS/MS.
Data Analysis: The automatic peak integration areas are checked for all the samples. The Analyte Peak Area and Internal Standard Peak Area are exported into excel spreadsheet. The inhibition of each P450 enzyme in human liver microsomes is measured as the percentage decrease in the activity of marker metabolite formation compared to non-inhibited controls (=100% activity).
The percentage of remaining activity was calculated as follows:
Area Ratio=Peak Area Analyte/Peak Area Internal Standard Remaining Activity (%)=Area Ratio test compound/Area Ratio vehicle*100% Inhibition %=100-Remaining Activity (%)

[2] = Plasma Protein Binding with Ultracentrifugation Method, mouse; settings: for fraction unbound at 30 min, 1 μM: mouse plasma, read-out: Mouse plasma protein binding (% bound); for fraction unbound at 5.5 h, 1 μM: mouse, plasma, read-out: Plasma Protein Binding PPB (m) % (converted)
Method: as §1, §2, §3

Row | SMILES | fraction unbound at 30 min, 1 μM [1] | inhibition at 10 µM (CYP2D6) [%] | fraction unbound at 30 min, 1 μM [2] | fraction unbound at 5.5 h, 1 μM [1] | fraction unbound at 5.5 h, 1 μM [2]
1 | C[C@@H](CO)n1cnc2c(-c3cccnc3)nc(-c3ccc(C4CC4)nc3)cc2c1=O [Compound 74] | < 0.25 | 7.27 | – | – | –
2 | C[C@H](n1cnc2c(-c3cnn(C)c3)nc(-c3ccc(Cl)cc3)cc2c1=O)C(C)(C)O [Compound 30] | – | 11.2 | < 0.25 | – | –
3 | CC(C)(O)Cn1cnc2c(-c3cccnc3)nc(-c3ccc(Cl)cc3)cc2c1=O [Compound 18] | < 0.25 | 12.1 | < 0.25 | – | –
4 | CC(C)(O)Cn1cnc2c(-c3cccnc3)nc(-c3ccc(C(F)(F)F)cc3)cc2c1=O [Compound 16] | < 0.25 | 15.6 | < 0.25 | – | –
5 | O=c1c2cc(-c3ccc(Cl)cc3)nc(-c3cccnc3)c2ncn1[C@H]1COC[C@@H]1O [Compound 125, 6-(4-chlorophenyl)-3-((3S,4R)-4-hydroxytetrahydrofuran-3-yl)-8-(pyridin-3-yl)pyrido[3,4-d]pyrimidin-4(3H)-one] | < 0.25 | 20.6 | < 0.25 | – | –
6 | Cn1cc(-c2nc(-c3ccc(Cl)cc3)cc3c(=O)n(CC(C)(C)O)cnc23)cn1 [Compound 21] | < 0.25 | – | < 0.25 | – | –
7 | C[C@@H](CO)n1cnc2c(-c3cccc(F)c3)nc(-c3ccc(C(F)(F)F)cn3)cc2c1=O [Compound 47, (S)-8-(3-fluorophenyl)-3-(1-hydroxypropan-2-yl)-6-(5-(trifluoromethyl)pyridin-2-yl)pyrido[3,4-d]pyrimidin-4(3H)-one] | < 0.25 | – | – | – | –
8 | C[C@@H](CO)n1cnc2c(-n3ccnc3)nc(-c3ccc(OC(F)(F)F)cc3)cc2c1=O [Compound 44, (S)-3-(1-hydroxypropan-2-yl)-8-(1H-imidazol-1-yl)-6-(4-(trifluoromethoxy)-phenyl)pyrido[3,4-d]pyrimidin-4(3H)-one] | < 0.25 | – | – | – | –
9 | C[C@@H](CO)n1cnc2c(-c3cncc(F)c3)nc(-c3ccc(OC(F)(F)F)cc3)cc2c1=O [Compound 1, (S)-8-(5-fluoropyridin-3-yl)-3-(1-hydroxypropan-2-yl)-6-(4-(trifluoromethoxy)phenyl)pyrido[3,4-d]pyrimidin-4(3H)-one] | < 0.25 | – | – | – | –
10 | C[C@@H](CO)n1cnc2c(-c3cccnc3)nc(-c3ccc(C(F)(F)F)cn3)cc2c1=O [Compound 46, (S)-3-(1-hydroxypropan-2-yl)-8-(pyridin-3-yl)-6-(5-(trifluoromethyl)pyridin-2-yl)pyrido[3,4-d]pyrimidin-4(3H)-one] | < 0.25 | 7.43 | < 0.25 | 0.108 | 0.075
11 | C[C@@H](CO)n1cnc2c(-c3cccc(F)c3)nc(-c3ccc(C(F)(F)F)nc3)cc2c1=O [Compound 8] | < 0.25 | – | – | – | –
12 | Cn1cc(-c2nc(-c3ccc(C(F)(F)F)nc3)cc3c(=O)n(CC(C)(C)O)cnc23)cn1 [Compound 60] | < 0.25 | – | < 0.25 | – | –
13 | CC(C)(O)Cn1cnc2c(-c3cccnc3)nc(-c3ccc(C(F)(F)F)nc3)cc2c1=O [Compound 9] | < 0.25 | 7.19 | < 0.25 | 0.109 | 0.104
14 | C[C@@H](CO)n1cnc2c(-c3cccnc3)nc(-c3ccc(OC(F)(F)F)cc3)cc2c1=O [Compound 22] | < 0.25 | – | < 0.25 | – | –
15 | C[C@@H](n1cnc2c(-c3cccnc3)nc(-c3ccc(Cl)cc3)cc2c1=O)C(C)(C)O [Compound 33] | < 0.25 | – | – | – | –
16 | C[C@@H](CO)n1cnc2c(-c3cccnc3)nc(-c3ccc(C(F)(F)F)nc3)cc2c1=O [Compound 12] | < 0.25 | 8.45 | < 0.25 | – | –
17 | C[C@@H](CO)n1cnc2c(-c3cccc(F)c3)nc(-c3ccc(Cl)cc3)cc2c1=O [Compound 7] | < 0.25 | 6.78 | < 0.25 | – | –
18 | C[C@@H](CO)n1cnc2c(-c3cnn(C)c3)nc(-c3ccc(C(F)(F)F)nc3)cc2c1=O [Compound 68] | < 0.25 | 10.9 | < 0.25 | – | –
19 | Cn1cc(-c2nc(-c3ccc(C(F)(F)F)cn3)cc3c(=O)n(CC(C)(C)O)cnc23)cn1 [Compound 103, 3-(2-hydroxy-2-methylpropyl)-8-(1-methyl-1H-pyrazol-4-yl)-6-(5-(trifluoromethyl)pyridin-2-yl)pyrido[3,4-d]pyrimidin-4(3H)-one] | < 0.25 | 8.7 | < 0.25 | – | –
20 | O=c1c2cc(-c3ccc(C(F)(F)F)nc3)nc(-c3cccnc3)c2ncn1[C@@H]1COC[C@H]1O [Compound 79] | < 0.25 | 8 | < 0.25 | – | –
21 | CC(C)(O)Cn1cnc2c(-c3cccnc3)nc(-c3ccc(C(F)(F)F)cn3)cc2c1=O [Compound 105] | < 0.25 | 2.73 | < 0.25 | – | –
22 | Cc1ccc(-c2cc3c(=O)n([C@@H](C)CO)cnc3c(-c3cccnc3)n2)cc1 [Compound 17, (S)-3-(1-hydroxypropan-2-yl)-8-(pyridin-3-yl)-6-(p-tolyl)pyrido[3,4-d]pyrimidin-4(3H)-one] | < 0.25 | – | < 0.25 | – | –
23 | C[C@@H](CO)n1cnc2c(-c3cnn(C)c3)nc(-c3ccc(Cl)cc3)cc2c1=O [Compound 27] | < 0.25 | 8.96 | – | – | –
